PubChem BioAssay AID330 (DTP/NCI, 2004)
“And” between values parts separate entries of the source, which are not always exact repeats. Equal values may be shown once. Toxic doses and inconclusive results are not listed.

System: P388 leukemia ip, CD2F1 mice, survival T/C
Experiment: NCI In Vivo Anticancer Drug Screen. Data for tumor model P388 Leukemia (intraperitoneal) in CD2F1 (CDF1) mice
Conditions: endpoint: median survival time, higher = longer survival
In short: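 Mice carrying the transplanted tumor received test compound or vehicle. Survival was recorded in each group, and the value is the treated-group measurement divided by that of the vehicle-treated control group.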

[1] = dose: 7.5 mg/kg/injection, schedule: Q01DX005 (ip), vehicle: Klucel (hydroxypropylcellulose) (HPC)
[2] = dose: 50.0 mg/kg/injection, schedule: Q01DX009 (ip), vehicle: Klucel (hydroxypropylcellulose) (HPC)
[3] = dose: 100.0 mg/kg/injection, schedule: Q01DX009 (ip), vehicle: Klucel (hydroxypropylcellulose) (HPC)
[4] = dose: 200.0 mg/kg/injection, schedule: Q01DX009 (ip), vehicle: Klucel (hydroxypropylcellulose) (HPC)
[5] = dose: 50.0 mg/kg/injection, schedule: Q01DX009 (ip), vehicle: other
[6] = dose: 100.0 mg/kg/injection, schedule: Q01DX009 (ip), vehicle: other
[7] = dose: 200.0 mg/kg/injection, schedule: Q01DX009 (ip), vehicle: other
[8] = dose: 50.0 mg/kg/injection, schedule: Q01DX005 (ip), vehicle: saline with Tween-80
[9] = dose: 100.0 mg/kg/injection, schedule: Q01DX005 (ip), vehicle: saline with Tween-80
[10] = dose: 200.0 mg/kg/injection, schedule: Q01DX005 (ip), vehicle: saline with Tween-80

`CC(O)COCCOCCO` (centres undefined) was tested, and the T/C (dose: 100.0 mg/kg/injection, schedule: Q04DX003 (ip), vehicle: saline) was 100 % of control, the T/C (dose: 200.0 mg/kg/injection, schedule: Q04DX003 (ip), vehicle: saline) was 100 % of control and the T/C (dose: 400.0 mg/kg/injection, schedule: Q04DX003 (ip), vehicle: saline) was 104 % of control.
For `[Cl][Pt+2][Cl].[NH-]CC1(C[NH-])CCC1`, the T/C (dose: 0.38 mg/kg/injection, schedule: Q01DX009 (ip), vehicle: saline) was 114 % of control, the T/C (dose: 0.38 mg/kg/injection, schedule: Q01DX009 (ip), vehicle: suspension in saline) was 161 % of control and the T/C (dose: 0.75 mg/kg/injection, schedule: Q01DX009 (ip), vehicle: suspension in saline) was 215 % of control. The T/C (dose: 1.5 mg/kg/injection, schedule: Q01DX005 (ip), vehicle: saline) was 175 % of control, the T/C (dose: 1.5 mg/kg/injection, schedule: Q01DX005 (ip), vehicle: suspension in saline) was 161 % of control and the T/C (dose: 1.5 mg/kg/injection, schedule: Q01DX009 (ip), vehicle: saline) was 165 % of control. The T/C (dose: 1.5 mg/kg/injection, schedule: Q01DX009 (ip), vehicle: suspension in saline) was 247 % of control, the T/C (dose: 3.0 mg/kg/injection, schedule: Q01DX005 (ip), vehicle: saline) was 202 % of control and the T/C (dose: 3.0 mg/kg/injection, schedule: Q01DX005 (ip), vehicle: suspension in saline) was 191 % of control. The T/C (dose: 3.0 mg/kg/injection, schedule: Q01DX009 (ip), vehicle: saline) was 243 % of control, the T/C (dose: 3.0 mg/kg/injection, schedule: Q01DX009 (ip), vehicle: suspension in saline) was 159 % of control and the T/C (dose: 6.0 mg/kg/injection, schedule: Q01DX005 (ip), vehicle: saline) was 112 % of control. The T/C (dose: 6.0 mg/kg/injection, schedule: Q01DX005 (ip), vehicle: suspension in saline) was 198 % of control, the T/C (dose: 6.0 mg/kg/injection, schedule: Q01DX009 (ip), vehicle: saline) was 215 % of control and the T/C (dose: 6.0 mg/kg/injection, schedule: Q01DX009 (ip), vehicle: suspension in saline) was 119 % of control.
For `Cc1ccc(F)cc1NC(=S)NN`, the T/C [1] was 100 % of control, the T/C (dose: 15.0 mg/kg/injection, schedule: Q01DX005 (ip), vehicle: Klucel (hydroxypropylcellulose) (HPC)) was 99 % of control and the T/C (dose: 30.0 mg/kg/injection, schedule: Q01DX005 (ip), vehicle: Klucel (hydroxypropylcellulose) (HPC)) was 91 % of control.
In the case of `COC(=O)c1ccccc1OC(C)=O`, the T/C (dose: 25.0 mg/kg/injection, schedule: Q01DX009 (ip), vehicle: suspension in saline) is reported as 99 % of control, the T/C (dose: 50.0 mg/kg/injection, schedule: Q01DX009 (ip), vehicle: suspension in saline) is reported as 99 % of control and the T/C (dose: 100.0 mg/kg/injection, schedule: Q01DX009 (ip), vehicle: suspension in saline) is reported as 96 % of control. The T/C (dose: 200.0 mg/kg/injection, schedule: Q01DX009 (ip), vehicle: suspension in saline) was 100 % of control.
In the case of `CC(C)Cc1c(O)c(N=Nc2ccc(C(=O)O)c(O)c2)c2ccccc2c1O`, the T/C (dose: 100.0 mg/kg/injection, schedule: Q04DX002 (ip), vehicle: distilled water + alcohol) is reported as 99 % of control and the T/C (dose: 200.0 mg/kg/injection, schedule: Q04DX002 (ip), vehicle: distilled water + alcohol) is reported as 97 % of control.
`CCCCc1c(OC)cc(O)c2c1C(=O)c1[nH]c(C(=O)O)c(O)c(=O)c1C2=O` was tested, and the T/C (dose: 7.5 mg/kg/injection, schedule: Q01DX009 (ip), vehicle: Klucel (hydroxypropylcellulose) (HPC)) was 98 % of control, the T/C (dose: 15.0 mg/kg/injection, schedule: Q01DX009 (ip), vehicle: Klucel (hydroxypropylcellulose) (HPC)) was 100 % of control and the T/C (dose: 30.0 mg/kg/injection, schedule: Q01DX009 (ip), vehicle: Klucel (hydroxypropylcellulose) (HPC)) was 95 % of control.
For `CCC1(O)C(=O)OCc2c1cc1n(c2=O)Cc2cc3ccccc3nc2-1` (centres undefined), the T/C (dose: 2.0 mg/kg/injection, schedule: Q04DX003 (ip), vehicle: other) was 150 % of control and 153 % of control, the T/C (dose: 4.0 mg/kg/injection, schedule: Q04DX003 (ip), vehicle: other) was 167 % of control and 178 % of control and the T/C (dose: 8.0 mg/kg/injection, schedule: Q04DX003 (ip), vehicle: other) was 222 % of control and 229 % of control. For the same molecule, the T/C (dose: 16.0 mg/kg/injection, schedule: Q04DX003 (ip), vehicle: other) was 118 % of control.
In the case of `O=C(NNC1=NCCN1Cc1ccccc1)c1cccc(Cl)c1`, the T/C [2] is reported as 100 % of control, the T/C [3] is reported as 100 % of control and the T/C [4] is reported as 100 % of control.
In the case of `CNP1(NC)=NP(N(C)C)(N(C)C)=NP(N(C)C)(N(C)C)=N1`, the T/C (dose: 50.0 mg/kg/injection, schedule: Q01DX005 (ip), vehicle: saline) is reported as 102 % of control, the T/C (dose: 100.0 mg/kg/injection, schedule: Q01DX005 (ip), vehicle: saline) is reported as 112 % of control and the T/C (dose: 200.0 mg/kg/injection, schedule: Q01DX005 (ip), vehicle: saline) is reported as 104 % of control.
`CCCCCCCC/C=C\CCCCCCCCCCCC(=O)O` was tested, and the T/C [2] was 100 % of control, the T/C [5] was 100 % of control and the T/C [3] was 92 % of control. For the same molecule, the T/C [6] was 106 % of control, the T/C [4] was 91 % of control and the T/C [7] was 102 % of control. For the same molecule, the T/C (dose: 400.0 mg/kg/injection, schedule: Q01DX009 (ip), vehicle: Klucel (hydroxypropylcellulose) (HPC)) was 98 % of control and the T/C (dose: 400.0 mg/kg/injection, schedule: Q01DX009 (ip), vehicle: other) was 94 % of control.
In the case of `O=[N+]([O-])c1cc2c(ccc3cc(Br)ccc32)o1`, the T/C (dose: 50.0 mg/kg/injection, schedule: Q01DX005 (ip), vehicle: Klucel (hydroxypropylcellulose) (HPC)) is reported as 87 % of control, the T/C (dose: 100.0 mg/kg/injection, schedule: Q01DX005 (ip), vehicle: Klucel (hydroxypropylcellulose) (HPC)) is reported as 92 % of control and the T/C (dose: 200.0 mg/kg/injection, schedule: Q01DX005 (ip), vehicle: Klucel (hydroxypropylcellulose) (HPC)) is reported as 92 % of control.
For `c1ccc(SC2=C(Sc3ccccc3)CC2)cc1`, the T/C [8] was 102 % of control, the T/C [9] was 111 % of control and the T/C [10] was 102 % of control.
In the case of `CCCCOc1ccc(C(=O)N/N=C(\C)[C@]2(O)Cc3c(O)c4c(c(O)c3[C@@H](OC3CC(N)C(O)C(C)O3)C2)C(=O)c2c(OC)cccc2C4=O)cc1` (some centres undefined), the T/C (dose: 0.12 mg/kg/injection, schedule: Q01DX009 (ip), vehicle: water) is reported as 115 % of control, the T/C (dose: 0.5 mg/kg/injection, schedule: Q01DX009 (ip), vehicle: water) is reported as 150 % of control and 151 % of control and the T/C (dose: 1.0 mg/kg/injection, schedule: Q01DX009 (ip), vehicle: water) is reported as 152 % of control and 160 % of control. For the same molecule, the T/C (dose: 2.0 mg/kg/injection, schedule: Q01DX009 (ip), vehicle: water) was 160 % of control and 179 % of control, the T/C (dose: 5.0 mg/kg/injection, schedule: Q01DX001 (ip), vehicle: water) was 153 % of control and the T/C (dose: 20.0 mg/kg/injection, schedule: Q01DX001 (ip), vehicle: water) was 106 % of control.
For `CCS[C@@H](C(O)C(O)C(O)C(O)CO)n1cnc2c(Cl)ncnc21` (some centres undefined), the T/C [8] was 98 % of control, the T/C [9] was 102 % of control and the T/C [10] was 96 % of control.
In the case of `C=Cn1cc[n+](CC(=O)OC2CCC3C4CCC5=CC(=O)CCC5(C)C4CCC23C)c1` (centres undefined), the T/C (dose: 3.75 mg/kg/injection, schedule: Q01DX005 (ip), vehicle: Klucel (hydroxypropylcellulose) (HPC)) is reported as 97 % of control and the T/C [1] is reported as 96 % of control.
In the case of `Cn1c(O)c(C2=NC(C(=O)O)CS2)c(=O)n(C)c1=O` (centres undefined), the T/C (dose: 60.0 mg/kg/injection, schedule: Q01DX005 (ip), vehicle: saline) is reported as 100 % of control, the T/C (dose: 120.0 mg/kg/injection, schedule: Q01DX005 (ip), vehicle: saline) is reported as 101 % of control and the T/C (dose: 240.0 mg/kg/injection, schedule: Q01DX005 (ip), vehicle: saline) is reported as 101 % of control.
`CC1CC[N-]C(N)C1.CC1CC[N-]C(N)C1.[Cl][Pt+2][Cl]` (centres undefined) was tested, and the T/C (dose: 100.0 mg/kg/injection, schedule: Q01DX001 (sc), vehicle: olive oil, sesame oil, peanut oil) was 106 % of control, the T/C (dose: 200.0 mg/kg/injection, schedule: Q01DX001 (sc), vehicle: olive oil, sesame oil, peanut oil) was 106 % of control and the T/C (dose: 400.0 mg/kg/injection, schedule: Q01DX001 (sc), vehicle: olive oil, sesame oil, peanut oil) was 107 % of control.
For `COC1=C(C)C(=O)c2[nH]c(Cl)c(C=O)c2C1=O`, the T/C (dose: 100.0 mg/kg/injection, schedule: Q01DX001 (ip), vehicle: saline with Tween-80) was 99 % of control and the T/C (dose: 200.0 mg/kg/injection, schedule: Q01DX001 (ip), vehicle: saline with Tween-80) was 95 % of control.
In the case of `CCOC(=O)c1cc2nc(C(C)C)n(Cc3ccccc3)c2cc(C(=O)OCC)c1=O`, the T/C (dose: 60.0 mg/kg/injection, schedule: Q01DX005 (ip), vehicle: saline with Tween-80) is reported as 103 % of control, the T/C (dose: 120.0 mg/kg/injection, schedule: Q01DX005 (ip), vehicle: saline with Tween-80) is reported as 97 % of control and the T/C (dose: 240.0 mg/kg/injection, schedule: Q01DX005 (ip), vehicle: saline with Tween-80) is reported as 89 % of control.
For `Cc1c(-c2ccccc2)ccnc1/C=N/NS(=O)(=O)c1ccccc1`, the T/C [5] was 103 % of control, the T/C [6] was 97 % of control and the T/C [7] was 96 % of control.
